Results reported in US11291620B2, “Avobenzone-dendrimer conjugates” (NEW YORK UNIVERSITY, priority 2018, dated 2022).

Experiments:
[1] = UV-Vis calibration: molar attenuation coefficient at 357 nM in isopropanol; type: physicochemical; conditions: run in triplicate, per mole of compound or dendrimer conjugate
Source text: Avobenzone and the avobenzone conjugates were each dissolved in isopropanol and the titrations were run in triplicate to calculate extinction coefficients for each conjugate.
UV analysis was run on each conjugate to test the absorbance and degradation profile of each compound. The linker and scaffold must not shift the UV absorbance profile of the avobenzone if it is to be used as an additive in sunscreen formulations. Otherwise, it might no longer be active as a UV-A filter. UV calibrations were run for free avobenzone, avobenzone with linker, and each class and generation of dendrimer-avobenzone conjugate to compare the modified molecules to the original under the same conditions.
The molar attenuation coefficient for each compound was calculated at 357 nM, the absorption maximum in the UVA-1 range. […] Additionally, no shift was observed after ligation to the dendrimer scaffolds.
Extinction coefficient curves were taken in isopropanol, a protic solvent known to stabilize avobenzone under UV irradiation, allowing the curve to be run on a single sample of avobenzone per curve without loss of activity (Mturi et al., J. Phoochem. Pholobiol. 200:410-20 (2008), which is hereby incorporated by reference in its entirety).

[2] = UV decay / UV stability: change of absorbance under UV lamp over four hours; type: physicochemical; conditions: ethyl acetate, UV lamp 365 nM, peak at 357 nm, triplicate, average
Source text: Avobenzone and the avobenzone conjugates were each dissolved in ethyl acetate, unless otherwise noted, and sealed in airtight quartz cuvettes. […] The avobenzone decay curves were run in triplicate and extra decay curves run in duplicate. UV stability experiments were run in triplicate in ethyl acetate (Mturi et al., J. Photochem. […] Unlike isopropanol, this solvent is known to encourage degradation and was chosen so that the experimental time scales would be similar to the time scale of sun exposure in vivo. Due to FDA regulations, all commercial sunscreens are labeled with instructions to reapply every two hours. The avobenzone systems were tested over four hours, double that time. The avobenzone, avobenzone linker, or avobenzone-dendrimer conjugate was dissolved in a small amount of isopropanol. In each study 90 μL of the stock solution was added to 3 mL of ethyl acetate and sealed in an airtight quartz cuvette. The initial absorptions were measured and the samples were sealed in quartz cuvettes and left under a UV lamp emitting at 365 nM. The absorption profile was measured at regular intervals.

Row | molar attenuation coefficient (for the compound / conjugate) [1] | final absorbance as % of the initial absorbance [2] [%] | SMILES
1 | 2,899 M^−1 cm^−1 | 108±1.8 | COc1ccc(C(=O)C(CCCCCCCCCCCO)C(=O)c2ccc(C(C)(C)C)cc2)cc1 (stereo not shown) [avobenzone with linker]
2 | 1,039 M^−1 cm^−1 | 90.7±1.4 | COc1ccc(C(=O)CC(=O)c2ccc(C(C)(C)C)cc2)cc1 [bare avobenzone, 4-Tert-butyl-4′-methoxydibenzoylmethane]
